Test results reported in patent publication US20140309310A1 (GACHON UNIVERSITY OF INDUSTRY-ACADEMIC COOPERATION …, priority 2011, published 2014).

Columns and labels:
[1] = test system: Caenorhabditis elegans; settings: reported; cited from earlier work
[2] = test system: ovariectomy-induced osteoporosis (ovariectomized BALB/c mice); experiment: High-resolution micro-CT imaging of femoral trabecular bone, trabecular thickness and separation in ovariectomized mice; format: in vivo, mouse; settings: OVX mice, DDS oral 2 mg/kg
Protocol: 10-week-old BALB/c mice were subjected to ovariectomy (OVX) to make experimental animal models with osteopenia induced by OVX. […] All the animal studies were approved by the Animal Research Ethical Committee of Seoul National University. The trabecular bone of femoral region adjacent to the mouse shin was imaged by radiography using high-resolution micro-CT. The right limb of the mice was excised and stored in 10% formalin for one day. Then, the bone tissue was stored in 70% alcohol at 4° C. until use in analysis. The bone tissue was imaged by computer tomography using Skyscan 1076 Desktop X-ray Microtomograph (Skyscan, Belgium) at a tube voltage of 100 kV and an exposure current of 200 μA. For the acquired images, bone mineral density (BMD) and bone volume (BV) were measured using Skyscan CTan ver. 1.5.0 and Shortcut to ANT image analysis program (Skyscan, Belgium), and the acquired images were reconstituted into three-dimensional images. In addition, trabecular thickness (Tb. Th) and trabecular separation (Tb. Sp), which are the indices of morphological microstructures on the micro CT images, were measured, and the results of the measurement are shown in FIG. 3.

[3] = test system: osteopenia induced by aging (female C57BL/6J mice); experiment: Whole-body bone mineral density and bone mass by DEXA in mice with osteoporosis induced by aging; format: in vivo, mouse; settings: DDS 2 mg/kg over 12 weeks
Protocol: The mice were acclimated for 1 week, housed at a temperature of 21±1° C. and a humidity of 60%, and allowed access to food ad libitum.

[4] = test system: ovariectomy-induced osteoporosis (ovariectomized BALB/c mice); experiment: Whole-body bone mineral density and bone mass by dual energy X-ray absorptiometry (DEXA) in ovariectomized mice; format: in vivo, mouse; settings: DDS oral 2 mg/kg from 1 week before to 12 weeks after ovariectomy, whole body DEXA at 12 weeks, P<0.05 vs OVX
Excerpt: 10-week-old BALB/c mice were subjected to ovariectomy (OVX) to make experimental animal models with osteopenia induced by OVX. […] All the animal studies were approved by the Animal Research Ethical Committee of Seoul National University.

In the case of `Nc1ccc(S(=O)(=O)c2ccc(N)cc2)cc1` [DDS, diaminodiphenylsulfone], the “increase of life span of Caenorhabditis elegans” value [1] is given as 20-30%, the “microstructure of the bone section (micro-CT three-dimensional image)” value ([2]; femoral trabecular bone) is given as “as dense as that of the negative control group” and the “trabecular separation (Tb. Sp)” value ([2]; micro-CT of femoral region) is given as “levels similar to those of the negative control group”. For the same compound, the “trabecular thickness (Tb. Th)” value ([2]; micro-CT of femoral region) was “levels similar to those of the negative control group”, the “change in bone mass, 8-month-old mice” value ([3]; female C57BL/6J) was “no significant change” and the “change in bone mineral density, 8-month-old mice” value ([3]; female C57BL/6J) was “no significant change”. The “increase in bone mass, 30-month-old mice” value ([3]; female mice) was 9.6%, the “increase in bone mineral density, 30-month-old mice” value ([3]; female mice) was 5.11% and the “increase in bone mass compared to the positive control group (OVX)” value [4] was 9.13%. For the same compound, the “increase in bone mineral density compared to the positive control group (OVX)” value [4] was 4.09%.
